Drawing on patent publication US11236055B2 (Venenum Biodesign, LLC, priority 2016, dated 2022), this text covers EC50 for 17 compounds.

One experiment has as its target T1, mouse TGR5 receptor (Mus musculus, UniProt Q80SS6).
T1 construct: expressed in transfected cells; host or cells: HEK293-EBNA (293 c18, ATCC CRL10852), Hygromycin B selection
T1 sequence (Q80SS6 1-329): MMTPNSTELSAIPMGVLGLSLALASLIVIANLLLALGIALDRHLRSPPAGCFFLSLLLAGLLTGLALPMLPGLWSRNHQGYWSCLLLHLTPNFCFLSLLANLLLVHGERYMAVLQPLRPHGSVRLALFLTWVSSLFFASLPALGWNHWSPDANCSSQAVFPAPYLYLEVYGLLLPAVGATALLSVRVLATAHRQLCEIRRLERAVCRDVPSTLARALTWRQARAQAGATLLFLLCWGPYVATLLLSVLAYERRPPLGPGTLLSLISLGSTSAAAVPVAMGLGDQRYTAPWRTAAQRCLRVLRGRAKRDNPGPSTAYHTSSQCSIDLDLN
The experiment in a line: Mouse TGR5 cAMP production assay (HTRF, Cisbio cAMP HiRange). Format: cell-based. The note with it: HEK293-EBNA cells overexpressing mouse TGR5, HTRF cAMP HiRange; coded A-D. A digest of the protocol:
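cAMP read by HTRF competition after 1 h room-temperature compound exposure of mouse TGR5-overexpressing HEK293-EBNA cells. Cells were suspended in serum-free DMEM containing 500 μM IBMX; compounds ran as 12-point half-log dilutions in duplicate; EC50 derived.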

A further experiment relates to Mouse STC-1 cells. Kind of experiment: STC-1 GLP-1 assay. The class given is cell-based. The note with it: GLP-1 secretion, 2 h, coded A-C, read-out: Mouse STC-1 HTRF GLP-1 Activity (EC50). A digest of the protocol: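 Cells were seeded two days before in charcoal-stripped FBS medium, then exposed 2 h at 37 °C to compounds (12-point half-log series) in HBSS with protease inhibitors, DPP-IV inhibitor and 0.1% fatty acid free BSA. Active GLP-1 in supernatants measured by HTRF; EC50 derived.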
For orientation: TR-FRET usually uses a lanthanide donor and a delayed reading to cut background.

The structures appear in SMILES notation.

With `CCc1cnccc1-c1cccc([C@H](C)N(CCCC(=O)NCCS(=O)(=O)NCC(=O)O)S(=O)(=O)c2cccc(Cl)c2C)c1` [Compound 21AT, (S) 2-(3-(4-(3-chloro-2-methyl-N-(1-(3-(3-ethylpyridin-4-yl)phenyl)ethyl)phenylsulfonamido)butanamido)ethylsulfonamido)acetic acid], the EC50 (in general, the concentration that produces a half-maximal response) is less than 100 nM at mouse TGR5 receptor and 100 to 999 nM with Mouse STC-1 cells.

For `CCc1cnccc1-c1cccc([C@H](C)N(CCCC(=O)NCCNS(N)(=O)=O)S(=O)(=O)c2cccc(Cl)c2C)c1` [Compound 37AA, (S)-4-(3-chloro-N-(1-(3-(3-ethylpyridin-4-yl)phenyl)ethyl)-2-methylphenylsulfonamido)-N-(2-(sulfamoylamino)ethyl)butanamide], the EC50 at mouse TGR5 receptor is less than 100 nM; in the experiment with Mouse STC-1 cells it was 100 to 999 nM.

On to `CCc1cnccc1-c1cccc(C(C)(C)N(CCCC(=O)NCCS(=O)(=O)O)S(=O)(=O)c2cccc(Cl)c2C)c1` [Compound 20AC, 2-(4-(3-chloro-N-(2-(3-(3-ethylpyridin-4-yl)phenyl)propan-2-yl)-2-methylphenylsulfonamido)butanamido)ethanesulfonic acid], for which the EC50 on mouse TGR5 receptor was less than 100 nM; in the experiment with Mouse STC-1 cells it was 100 to 999 nM.

Turning to `Cc1cnccc1-c1cccc([C@H](C)N(CCCC(=O)NCCNS(=O)(=O)NCC(=O)O)S(=O)(=O)c2cccc(Cl)c2C)c1` [Compound 38], the values for the EC50 on mouse TGR5 receptor and in the experiment with Mouse STC-1 cells were less than 100 nM and 100 to 999 nM, respectively.

With `CCc1cnccc1-c1cccc([C@H](C)N(CCCC(=O)NCCS(=O)(=O)NCC(=O)O)S(=O)(=O)c2ccccc2C(F)(F)F)c1` [Compound 20BG], the EC50 was less than 100 nM at mouse TGR5 receptor and 100 to 999 nM with Mouse STC-1 cells.

With `Cc1cnccc1-c1cccc(C(C)(C)N(CCCC(=O)NCCS(=O)(=O)O)S(=O)(=O)c2ccccc2C(F)(F)F)c1` [Compound 20AA, 2-(4-(N-(2-(3-(3-methylpyridin-4-yl)phenyl)propan-2-yl)-2-(trifluoromethyl)phenylsulfonamido)butanamido)ethanesulfonic acid], the results for the EC50 on mouse TGR5 receptor and in the experiment on Mouse STC-1 cells were less than 100 nM and 100 to 999 nM, respectively.

Regarding `CCc1cnccc1-c1cccc([C@H](C)N(CCCC(=O)NC[C@@H](O)[C@H](O)[C@@H](O)[C@@H](O)CO)S(=O)(=O)c2cccc(Cl)c2C)c1` [Compound 20AN, 4-(3-chloro-N-((S)-1-(3-(3-ethylpyridin-4-yl)phenyl)ethyl)-2-methylphenylsulfonamido)-N-((2R,3S,4S,5S)-2,3,4,5,6-pentahydroxyhexyl)butanamide], the EC50 at mouse TGR5 receptor is less than 100 nM; with Mouse STC-1 cells, 100 to 999 nM.

Take `CCc1cnccc1-c1cccc(C(C)(C)N(CCCC(=O)NCCS(=O)(=O)O)S(=O)(=O)c2ccccc2C(F)(F)F)c1` [Compound 20, 2-(4-(N-(2-(3-(3-ethylpyridin-4-yl)phenyl)propan-2-yl)-2-(trifluoromethyl)-phenylsulfonamido)butanamido)ethanesulfonic acid]: the EC50 at mouse TGR5 receptor and in the experiment on Mouse STC-1 cells was less than 100 nM each time.

For the compound `CCc1cnccc1-c1cccc([C@H](C)N(CCCC(=O)NCCS(=O)(=O)O)S(=O)(=O)c2cccc(Cl)c2C)c1` [Compound 21AQ, (S)-2-(4-(3-chloro-N-(1-(3-(3-ethylpyridin-4-yl)phenyl)ethyl)-2-methylphenylsulfonamido)butanamido)ethanesulfonic acid], the EC50 on mouse TGR5 receptor is less than 100 nM; with Mouse STC-1 cells, 100 to 999 nM.

In the case of `Cc1cnccc1-c1cccc(C(C)(C)N(CCCC(=O)NCS(=O)(=O)O)S(=O)(=O)c2ccccc2C(F)(F)F)c1` [Compound 20AB], the EC50 is less than 100 nM at mouse TGR5 receptor and 100 to 999 nM with Mouse STC-1 cells.

For `CCc1cnccc1-c1cccc([C@H](C)N(CCCC(=O)NCCS(=O)(=O)NCC(=O)O)S(=O)(=O)c2ccccc2C)c1` [Compound 20BU, (S)-2-(4-(2-methyl-N-(1-(3-(3-ethylpyridin-4-yl)phenyl)ethyl)phenylsulfonamido)butanamidoethylsulfonamido)acetate], the figures for the EC50 at mouse TGR5 receptor and in the experiment with Mouse STC-1 cells were less than 100 nM and 100 to 999 nM, respectively.

Take `Cc1cnccc1-c1cccc([C@H](C)N(CCCCC(=O)NCCS(=O)(=O)NCC(=O)O)S(=O)(=O)c2ccccc2C(F)(F)F)c1` [Compound 20BL, (S) 2-(4-(N-(1-(3-(3-methylpyridin-4-yl)phenyl)ethyl)-2-(trifluoromethyl)phenylsulfonamidopentanamido)ethylsulfonamido)acetic acid]: the EC50 at mouse TGR5 receptor was less than 100 nM; with Mouse STC-1 cells, 1000 to 30000 nM.

In the case of `CCc1cnccc1-c1cccc([C@H](C)N(CCCC(=O)NCCS(=O)(=O)O)S(=O)(=O)c2ccccc2C)c1` [Compound 20AR, (S)-2-(4-(N-(1-(3-(3-ethylpyridin-4-yl)phenyl)ethyl)-2-methylphenyl-sulfonamido)butanamido)ethane sulfonic acid], the 50% effective concentration (EC50) on mouse TGR5 receptor was less than 100 nM; in the experiment on Mouse STC-1 cells it was 100 to 999 nM.

For the compound `Cc1cnccc1-c1cccc([C@H](C)N(CCCC(=O)NCCNS(=O)(=O)CCC(=O)O)S(=O)(=O)c2cccc(Cl)c2C)c1` [Compound 26AB], the results for the EC50 on mouse TGR5 receptor and in the experiment on Mouse STC-1 cells were less than 100 nM and 100 to 999 nM, respectively.

On to `Cc1cnccc1-c1cccc([C@H](C)N(CCCCC(=O)NCCS(=O)(=O)O)S(=O)(=O)c2cccc(Cl)c2C)c1` [Compound 20AH, (S)-2-(5-(3-chloro-2-methyl-N-(1-(3-(3-methylpyridin-4-yl)phenyl)ethyl)phenylsulfonamido)pentanamido)ethanesulfonic acid], for which the EC50 on mouse TGR5 receptor was less than 100 nM; in the experiment with Mouse STC-1 cells, 1000 to 30000 nM.

For the compound `Cc1cnccc1-c1cccc([C@H](C)N(CCCC(=O)NCCNS(=O)(=O)CC(=O)O)S(=O)(=O)c2cccc(Cl)c2C)c1` [Compound 26AA], the EC50 on mouse TGR5 receptor is less than 100 nM; with Mouse STC-1 cells, 100 to 999 nM.

Take `Cc1cnccc1-c1cccc([C@H](C)N(CCCC(=O)NCCS(=O)(=O)NCC(=O)O)S(=O)(=O)c2cccc(Cl)c2C)c1` [Compound 21AN, (S) 2-(3-(4-(3-chloro-2-methyl-N-(1-(3-(3-methylpyridin-4-yl)phenyl)ethyl)phenylsulfonamido)butanamido)ethylsulfonamido)acetic acid]: the EC50 on mouse TGR5 receptor was less than 100 nM; in the experiment with Mouse STC-1 cells, 100 to 999 nM.
